Where two headings read alike, the source gives them in different places.
Assays:
desmolase [1] = conditions: literature; cited from earlier work
desmolase [2] = molecular target: T1, desmolase (Bos taurus, UniProt P00189); assay: Desmolase inhibition, (26-^14C)-cholesterol as substrate (7 micromolar), mitochondrial fraction of bovine adrenal cortex; type: biochemical
T1 construct: The mitochondrial fraction of bovine adrenal cortex provided the source of desmolase; from tissue; host or cells: bovine adrenal cortex, mitochondrial fraction
T1 sequence (P00189 40-520): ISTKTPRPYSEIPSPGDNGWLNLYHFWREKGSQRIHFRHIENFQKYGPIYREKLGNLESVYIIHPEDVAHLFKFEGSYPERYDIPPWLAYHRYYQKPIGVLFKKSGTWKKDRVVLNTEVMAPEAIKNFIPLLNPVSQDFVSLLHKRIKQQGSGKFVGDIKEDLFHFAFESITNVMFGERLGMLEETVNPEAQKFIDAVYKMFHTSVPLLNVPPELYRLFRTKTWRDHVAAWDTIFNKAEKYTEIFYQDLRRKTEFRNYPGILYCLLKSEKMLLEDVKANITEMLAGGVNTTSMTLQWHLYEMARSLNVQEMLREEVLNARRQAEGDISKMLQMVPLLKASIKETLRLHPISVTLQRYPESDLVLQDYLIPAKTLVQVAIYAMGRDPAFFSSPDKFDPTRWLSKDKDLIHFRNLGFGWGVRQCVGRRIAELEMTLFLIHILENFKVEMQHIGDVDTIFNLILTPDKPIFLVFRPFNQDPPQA

[3] = CNS (sedative-hypnotic) activity; conditions: in vivo
aromatase [4] = molecular target: T2, aromatase (Homo sapiens, UniProt P11511); assay: Aromatase inhibition, (1,2-^3H) testosterone as substrate (1.5 micromolar), microsomal fraction of human placental tissue; type: biochemical; conditions: for IC50: 1.5 micromolar (^3H) testosterone; for IC50 / IC50 Aromatase Testosterone: 30° C., "None" = no inhibition; for IC50 Aromatase Testosterone: […] (^3H) testosterone; for aromatase inhibition (in words): substrate not stated
T2 construct: Aromatase was obtained from the microsomal fraction of human placental tissue; from tissue; host or cells: human placenta, microsomal fraction
T2 sequence (P11511 1-503): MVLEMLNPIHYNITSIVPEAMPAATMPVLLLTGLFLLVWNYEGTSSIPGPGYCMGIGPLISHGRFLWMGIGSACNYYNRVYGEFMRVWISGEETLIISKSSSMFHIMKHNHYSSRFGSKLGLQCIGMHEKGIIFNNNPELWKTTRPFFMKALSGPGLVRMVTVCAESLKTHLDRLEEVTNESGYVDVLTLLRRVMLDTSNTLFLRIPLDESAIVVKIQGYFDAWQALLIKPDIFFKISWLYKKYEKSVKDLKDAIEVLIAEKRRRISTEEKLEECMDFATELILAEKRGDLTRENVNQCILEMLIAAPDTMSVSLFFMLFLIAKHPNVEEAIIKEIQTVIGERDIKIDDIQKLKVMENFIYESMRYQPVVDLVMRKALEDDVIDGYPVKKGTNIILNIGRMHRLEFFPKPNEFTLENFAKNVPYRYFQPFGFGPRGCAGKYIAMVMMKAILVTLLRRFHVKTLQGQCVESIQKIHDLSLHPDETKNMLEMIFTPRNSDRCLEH

aromatase [5] = molecular target: T2, aromatase; assay: Aromatase inhibition, (1,2-^3H) androstene-3,17-dione as substrate (0.38 micromolar), microsomal fraction of human placental tissue; type: biochemical; conditions: 0.38 micromolar (^3H) androstene-3,17-dione, 30° C., "None" = no inhibition; for IC50: read-out: IC50 Aromatase Androstenedione
[6] = 7 micromolar (^14C) cholesterol, 30° C., "None" = no inhibition
[7] = 7 micromolar (^14C) cholesterol, 30° C., "None" = no inhibition, read-out: IC50 Desmolase

Structure (SMILES) | IC50 Desmolase (desmolase [2]; [6]) | IC50 (aromatase [4]) | further results
CCC1(c2ccc(N)cc2)CCC(=O)NC1=O (centres unmarked) [Aminoglutethimide] |  |  | inhibition of desmolase (desmolase [1]): also inhibits the enzyme desmolase
CCC1(c2ccncc2)CCC(=O)NC1=O (centres unmarked) [Pyridoglutethimide, 3-ethyl-3-(4-pyridyl)piperidine-2,6-dione] | none |  | CNS (sedative-hypnotic) activity [3]: little or no CNS (sedative-hypnotic) activity; inhibition of desmolase (desmolase [1]): not desmolase
O=C1CCC(CCC(F)(F)C(F)(F)C(F)(F)F)(c2ccncc2)C(=O)N1 (centres unmarked) [R1=(CH2)2 (CF2)2 CF3, R2=H] | none | 18 µM | IC50 (aromatase [5]): 22 µM
O=C1CCC(CCC(F)(F)C(F)(F)C(F)(F)C(F)(F)F)(c2ccncc2)C(=O)N1 (centres unmarked) [R1=(CH2)2 (CF2)3 CF3, R2=H, reference compound] | none | 18 µM | IC50 (aromatase [5]): 22 µM
O=C1CCC(CCC(F)(F)C(F)(F)C(F)(F)C(F)(F)C(F)(F)C(F)(F)F)(c2ccncc2)C(=O)N1 (centres unmarked) [R1=(CH2)2 (CF2)5 CF3, R2=H, reference compound] |  |  | IC50 (desmolase [2]): 93 µM; IC50 Aromatase Testosterone (aromatase [4]): none; IC50 Aromatase Androstenedione (aromatase [5]): none
O=C1CCC(CCC(F)(F)C(F)(F)C(F)(F)C(F)(F)C(F)(F)C(F)(F)C(F)(F)C(F)(F)F)(c2ccncc2)C(=O)N1 (centres unmarked) [R1=(CH2)2 (CF2)7 CF3, R2=H, reference compound] |  |  | IC50 (desmolase [2]): 79 µM; IC50 Aromatase Androstenedione (aromatase [5]): none
O=C1CCC(CCC(F)(F)F)(c2ccncc2)C(=O)N1 (centres unmarked) [R1=(CH2)2 CF3, R2=H] | none | 2.9 µM | IC50 (aromatase [5]): 7 µM
CCC1(c2ccncc2)CCC(=O)N(CCC(F)(F)C(F)(F)C(F)(F)F)C1=O (centres unmarked) [R1=C2 H5, R2=(CH2)2 (CF2)2 CF3] |  | 3 µM | IC50 (desmolase [2]): 240 µM; IC50 (aromatase [5]): 15 µM
CCC1(c2ccncc2)CCC(=O)N(CCC(F)(F)C(F)(F)C(F)(F)C(F)(F)F)C1=O (centres unmarked) [R1=C2 H5, R2=(CH2)2 (CF2)3 CF3] |  | 9 µM | IC50 (desmolase [2]): 120 µM; IC50 (aromatase [5]): 9 µM
CCC1(c2ccncc2)CCC(=O)N(CCC(F)(F)C(F)(F)C(F)(F)C(F)(F)C(F)(F)C(F)(F)F)C1=O (centres unmarked) [R1=C2 H5, R2=(CH2)2 (CF2)5 CF3] |  | 34 µM | IC50 (desmolase [2]): 145 µM; IC50 (aromatase [5]): 23 µM
CCC1(c2ccncc2)CCC(=O)N(CCC(F)(F)C(F)(F)C(F)(F)C(F)(F)C(F)(F)C(F)(F)C(F)(F)C(F)(F)F)C1=O (centres unmarked) [R1=C2 H5, R2=(CH2)2 (CF2)7 CF3] |  | 15 µM | IC50 (desmolase [2]): 150 µM; IC50 Aromatase Androstenedione (aromatase [5]): none
CCC1(c2ccncc2)CCC(=O)N(CC(F)(F)C(F)(F)C(F)(F)F)C1=O (centres unmarked) [R1=C2 H5, R2=CH2 (CF2)2 CF3] | none | 19 µM | IC50 (aromatase [5]): 106 µM
CCC1(c2ccncc2)CCC(=O)N(CC(F)(F)F)C1=O (centres unmarked) [R1=C2 H5, R2=CH2 CF3] |  | 14 µM | IC50 (desmolase [2]; [7]): > 350 µM; IC50 (aromatase [5]): 31 µM
CCC1(c2ccncc2)CCC(=O)N(CCC(F)(F)F)C1=O (centres unmarked) [R1=C2 H5, R2=CH2 CH2 CF3] | none | 11 µM | IC50 (aromatase [5]): 42 µM
CCC1(c2ccncc2)CCC(=O)N(C)C1=O (centres unmarked) [R1=C2 H5, R2=CH3] | none |  | 
CCC1(c2ccncc2)CCC(=O)N(CC2CCCCC2)C1=O (centres unmarked) [R1=C2 H5, R2=[drawing 7]] | none | 9 µM | 
CCN1C(=O)CCC(CC)(c2ccncc2)C1=O (centres unmarked) [R1=C2 H5, R2=n-C2 H5, reference compound] |  |  | IC50 (desmolase [2]; [7]): 92 µM
CCCN1C(=O)CCC(CC)(c2ccncc2)C1=O (centres unmarked) [R1=C2 H5, R2=n-C3 H7] | none |  | 
CCCCN1C(=O)CCC(CC)(c2ccncc2)C1=O (centres unmarked) [R1=C2 H5, R2=n-C4 H9] | none |  | 
CCCCCN1C(=O)CCC(CC)(c2ccncc2)C1=O (centres unmarked) [R1=C2 H5, R2=n-C5 H11] |  |  | IC50 (desmolase [2]; [7]): 209 µM

Structure (SMILES) | IC50 Desmolase (desmolase [2]; [6]) | IC50 (aromatase [4]) | further results
CCCCCCN1C(=O)CCC(CC)(c2ccncc2)C1=O (centres unmarked) [R1=C2 H5, R2=n-C6 H13] | none |  | 
CCCCCCCN1C(=O)CCC(CC)(c2ccncc2)C1=O (centres unmarked) [R1=C2 H5, R2=n-C7 H15] |  |  | IC50 (desmolase [2]; [7]): 210 µM
CCCCCCCCN1C(=O)CCC(CC)(c2ccncc2)C1=O (centres unmarked) [R1=C2 H5, R2=n-C8 H17] |  |  | IC50 (desmolase [2]; [7]): 110 µM
CCCCCCCCCN1C(=O)CCC(CC)(c2ccncc2)C1=O (centres unmarked) [R1=C2 H5, R2=n-C9 H19] |  |  | IC50 (desmolase [2]; [7]): 175 µM; aromatase inhibition (in words) (aromatase [4]): dramatic increase
CCCCCCCCCCN1C(=O)CCC(CC)(c2ccncc2)C1=O (centres unmarked) [R1=C2 H5, R2=n-C10 H21] |  |  | IC50 (desmolase [2]; [7]): 340 µM
CN1C(=O)CCC(C)(c2ccncc2)C1=O (centres unmarked) [R1=CH3, R2=CH3, reference compound] | none | > 90 µM | 
CC1(c2ccncc2)CCC(=O)NC1=O (centres unmarked) [R1=CH3, R2=H, reference compound] | none |  | 
CCCC1(c2ccncc2)CCC(=O)NC1=O (centres unmarked) [R1=n-C3 H7, R2=H] | none |  | 
CCCCC1(c2ccncc2)CCC(=O)NC1=O (centres unmarked) [R1=n-C4 H9, R2=H] | none |  | 
CCCCN1C(=O)CCC(CCCC)(c2ccncc2)C1=O (centres unmarked) [R1=n-C4 H9, R2=n-C4 H9] | none | 2.1 µM | 
CCCCCC1(c2ccncc2)CCC(=O)NC1=O (centres unmarked) [R1=n-C5 H11, R2=H] | none | 3.2 µM | 
CCCCCCC1(c2ccncc2)CCC(=O)NC1=O (centres unmarked) [R1=n-C6 H13, R2=H] | none | 3.8 µM | 
CCCCCCC1(c2ccncc2)CCC(=O)N(CC)C1=O (centres unmarked) [R1=n-C6 H13, R2=n-C2 H5] | none | 2.1 µM | 
CCCCCCCC1(c2ccncc2)CCC(=O)NC1=O (centres unmarked) [R1=n-C7 H15, R2=H] | none | 2 µM | 
CCCCCCCCC1(c2ccncc2)CCC(=O)NC1=O (centres unmarked) [R1=n-C8 H17, R2=H] | none |  | 
CCCCCCCCC1(c2ccncc2)CCC(=O)N(CCCC)C1=O (centres unmarked) [R1=n-C8 H17, R2=n-C4 H9, reference compound] |  |  | IC50 (desmolase [2]; [7]): 106 µM; IC50 Aromatase Testosterone (aromatase [4]): none; aromatase inhibition (in words) (aromatase [4]): no aromatase inhibition
CCCCCCCCC1(c2ccncc2)CCC(=O)N(CCCCCC)C1=O (centres unmarked) [R1=n-C8 H17, R2=n-C6 H13, reference compound] |  | 10 µM | desmolase inhibition (in words) (desmolase [2]): significant desmolase inhibition; IC50 (desmolase [2]; [7]): 73 µM
CCCCCCCCN1C(=O)CCC(CCCCCCCC)(c2ccncc2)C1=O (centres unmarked) [R1=n-C8 H17, R2=n-C8 H17, reference compound] |  |  | IC50 (desmolase [2]; [7]): 169 µM; IC50 Aromatase Testosterone (aromatase [4]): none
CCCCCCCCCC1(c2ccncc2)CCC(=O)NC1=O (centres unmarked) [R1=n-C9 H19, R2=H] | none |  | 

From patent US4668689A, “Glutarimide derivatives for treating oestrogen-dependent tumors” (National Research Development Corporation, priority 1984, dated 1987)
